Counter-ions that a name gives are not always drawn.
Columns and labels:
Assay type in all cases: cell-based
[1] = test system: Klebsiella pneumoniae XNWB 0003; test: MIC assay of test compounds combined with imipenem (4 μg/mL); conditions: imipenem 4 μg/mL fixed
Outline: (§1)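 Strains grown on TSA, colonies suspended to OD600 0.1-0.15, diluted 300-fold in CAMHB; compound dilutions combined with fixed ceftazidime or imipenem at concentrations given in assay names. Incubated 16-20 h at 35±2 °C; MIC read per CLSI guidelines, with growth and sterility controls.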

[2] = test system: Acinetobacter baumannii XNWB 0007; test: as above; conditions: imipenem 4 μg/mL fixed
Outline: as §1

[3] = test system: Pseudomonas aeruginosa XNWB 0008; test: as above; conditions: imipenem 4 μg/mL fixed
Outline: as §1

[4] = test system: Klebsiella pneumoniae XNWB 0006; test: as above; conditions: imipenem 4 μg/mL fixed
Outline: as §1

[5] = test system: Klebsiella pneumoniae XNWB 0002; test: as above; conditions: imipenem 4 μg/mL fixed
Outline: as §1

[6] = test system: Klebsiella pneumoniae XNWB 0001; test: as above; conditions: imipenem 4 μg/mL fixed
Outline: as §1

[7] = test system: Klebsiella pneumoniae XNWB 0005; test: as above; conditions: imipenem 4 μg/mL fixed
Outline: as §1

[8] = test system: Klebsiella pneumoniae XNWB 0004; test: as above; conditions: imipenem 4 μg/mL fixed
Outline: as §1

[9] = test system: Klebsiella pneumoniae XNWB 0003; test: MIC assay of test compounds combined with ceftazidime (8 μg/mL); conditions: ceftazidime 8 μg/mL fixed
Outline: as §1

[10] = test system: Acinetobacter baumannii XNWB 0007; test: as above; conditions: ceftazidime 8 μg/mL fixed
Outline: as §1

[11] = test system: Pseudomonas aeruginosa XNWB 0008; test: as above; conditions: ceftazidime 8 μg/mL fixed
Outline: as §1

[12] = test system: Klebsiella pneumoniae XNWB 0006; test: as above; conditions: ceftazidime 8 μg/mL fixed
Outline: as §1

[13] = test system: Klebsiella pneumoniae XNWB 0002; test: as above; conditions: ceftazidime 8 μg/mL fixed
Outline: as §1

[14] = test system: Klebsiella pneumoniae XNWB 0001; test: as above; conditions: ceftazidime 8 μg/mL fixed
Outline: as §1

[15] = test system: Klebsiella pneumoniae XNWB 0005; test: as above; conditions: ceftazidime 8 μg/mL fixed
Outline: as §1

[16] = test system: Klebsiella pneumoniae XNWB 0004; test: as above; conditions: ceftazidime 8 μg/mL fixed
Outline: as §1

Row | Structure (SMILES) | The minimum concentration of test compounds combined with imipenem (4 μg/mL) for bacteriostasis [1] | The minimum concentration of test compounds combined with imipenem (4 μg/mL) for bacteriostasis [2] | The minimum concentration of test compounds combined with imipenem (4 μg/mL) for bacteriostasis [3] | The minimum concentration of test compounds combined with imipenem (4 μg/mL) for bacteriostasis [4] | The minimum concentration of test compounds combined with imipenem (4 μg/mL) for bacteriostasis [5] | The minimum concentration of test compounds combined with imipenem (4 μg/mL) for bacteriostasis [6] | The minimum concentration of test compounds combined with imipenem (4 μg/mL) for bacteriostasis [7] | The minimum concentration of test compounds combined with imipenem (4 μg/mL) for bacteriostasis [8] | The minimum concentration of test compounds combined with ceftazidime (8 μg/mL) for bacteriostasis [9] | The minimum concentration of test compounds combined with ceftazidime (8 μg/mL) for bacteriostasis [10] | The minimum concentration of test compounds combined with ceftazidime (8 μg/mL) for bacteriostasis [11] | The minimum concentration of test compounds combined with ceftazidime (8 μg/mL) for bacteriostasis [12] | The minimum concentration of test compounds combined with ceftazidime (8 μg/mL) for bacteriostasis [13] | The minimum concentration of test compounds combined with ceftazidime (8 μg/mL) for bacteriostasis [14] | The minimum concentration of test compounds combined with ceftazidime (8 μg/mL) for bacteriostasis [15] | The minimum concentration of test compounds combined with ceftazidime (8 μg/mL) for bacteriostasis [16]
1 | NC(=O)[C@@H]1CC[C@@H]2CN1C(=O)N2OS(=O)(=O)O [Avibactam, reference compound] | A (A: <8 μg/mL) | C (C: 16-128 μg/mL) | A (A: <8 μg/mL) | A (A: <8 μg/mL) | A (A: <8 μg/mL) | A (A: <8 μg/mL) | A (A: <8 μg/mL) | A (A: <8 μg/mL) | A (A: <8 μg/mL) | C (C: 16-128 μg/mL) | A (A: <8 μg/mL) | A (A: <8 μg/mL) | A (A: <8 μg/mL) | A (A: <8 μg/mL) | A (A: <8 μg/mL) | A (A: <8 μg/mL)
2 | O=C1N2C[C@H](N1OS(=O)(=O)O)C1(CC1)C[C@H]2c1cc(CNC2CNC2)on1 [Example 48, (1R,4S)-4-(5-((azetidin-3-ylamino)methyl)isoxazol-3-yl)-6-oxo-5,7-diazaspiro[bicycle [3.2.1]octane-2,1′-cyclopropan]-7-yl sulfate] | A (A: <8 μg/mL) | C (C: 16-128 μg/mL) | A (A: <8 μg/mL) | A (A: <8 μg/mL) | A (A: <8 μg/mL) | A (A: <8 μg/mL) | A (A: <8 μg/mL) | A (A: <8 μg/mL) | A (A: <8 μg/mL) | C (C: 16-128 μg/mL) | B (B: 8-16 μg/mL) | A (A: <8 μg/mL) | A (A: <8 μg/mL) | A (A: <8 μg/mL) | A (A: <8 μg/mL) | B (B: 8-16 μg/mL)

From patent US11078202B2, “β-lactamase inhibitor and use thereof” (priority 2018, dated 2021)
